A short description of one data set: in vitro. Particulars: mouse, Mean CC50 ± SD. How it is done: (§1) An in vitro BALB 3T3 Neutral Red Uptake assay was used to determine the cytotoxicity/phototoxicity of the peptides. Cytotoxicity of peptide analogs was calculated as a percentage relative to the negative control. […] Photo irritation factor (PIF) was used to assess the phototoxic potential of the peptide analogs. The PIF factor represents the ratio between the CC50 values of dark (non-irradiated or—Irr) and irradiated (+Irr) microplates, PIF = (CC50 − Irr)/(CC50 + Irr).
(§2) Mouse embryonic fibroblasts (BALB 3T3) were used to perform the cytotoxicity and phototoxicity tests. The tests were performed by OECD Guidelines for the Testing of Chemicals, Section 4, Test No. 432. Cells were plated at 1 × 10^4 cells/well in 96-well plates. Cells were incubated in a thermostat for 24 h. Then, the test peptides were added at various working concentrations (4–1000 μM). In the phototoxicity test, 96-well plates were irradiated with a dose of 2.4 J/cm^2 using a solar light simulator Helios-iO (SERIC Ltd., Tokyo, Japan). Cell viability was measured using the BALB 3T3 neutral red uptake test. Cytotoxicity is presented as % relative to the negative control.

Another data set relates to BALB 3T3 cells. The data set is described as follows: in vitro. Here is the method: as §1, §2
Another data set deals with MCF-12F. Put plainly: cells. Conditions: 72 h. Here is the method: (§3) The peptides were studied for antiproliferative activity with an MTT-dye reduction assay. Cell cultures were incubated with the test peptides in twofold increasing concentrations (from 2 to 500 μM) for 72 h.
(§4) The antiproliferative activity of the peptides was determined in normal epithelial cells (MCF-12F) and tumor cells (MCF-7 and MDA-MB-231) by MTT-assay. Cells were plated 1 × 10^3 cells/100 µL/well of 96-well plates and incubated in a thermostat under standard conditions for 24 h. Cells were then incubated with the tested peptide analogs for 72 h in different concentrations (from 2 to 500 µM). The optical density of the formazan was measured at λ = 540 nm using a microplate reader. Antiproliferative activity was expressed as % from negative control. […] The statistical analysis of the results was performed using one-way ANOVA followed by Bonferroni’s post hoc test by GraphPad Prism 8 software (San Diego, CA, USA).

Another data set deals with MCF-7. The data set is described as follows: cells. Conditions: 72 h. Here is the method:
as §3, §4

The subject of a further data set is MDA-MB-231. Put plainly: cells. Conditions: 72 h. Here is the method: as §3, §4
In data set [1] the test system is Bacillus subtilis NBIMCC 3562. How it is done: (§5) The antimicrobial activity of the 7 new analogs of aurein 1.2 was evaluated by determining the MIC and MBC against Gram-positive strain Bacillus subtilis 3562 and Gram-negative strain Escherichia coli K12 407. The MIC of the newly synthesized analogs was assessed by applying a broth microdilution method, whereas their MBC was determined by using a spread plate method. All experiments were performed in triplicate.
(§6) Bacillus subtilis NBIMCC 3562 and Escherichia coli NBIMCC K12 407 were used as test microorganisms and were purchased from the National Bank for Industrial Microorganisms and Cell Cultures (NBIMCC, Sofia, Bulgaria). Exponential cultures were obtained in Nutrient broth (NB, HiMedia, Mumbai, India) for B. subtilis NBIMCC 3562 and Luria-Bertani (LB, HiMedia, Mumbai, India) for E. coli NBIMCC K12 407, after cultivation in an incubator shaker ES-20/60 (Biosan, Latvia) at 30/37 °C for 24 h. Then, the turbidity of the microbial cultures was adjusted to the 0.5 McFarland standard using a Grant Bio DEN-1B Densitometer (Grant Instruments, Royston, UK).
(§7) The antimicrobial activity of the obtained aurein 1.2 analogs was evaluated using the broth microdilution method, recommended by the Clinical and Laboratory Standards Institute (CLSI), to determine the minimum inhibitory concentration (MIC) of the peptides against B. subtilis NBIMCC 3562 and E. coli NBIMCC K12 407. All peptides were previously dissolved in 10% EtOH/H2O, and their 10 mg/mL stock solutions were stored at −20 °C. Bacterial cultures, previously adjusted to 0.5 McFarland standard, were incubated in the presence of different peptide concentrations (0–320 µg/mL) in 96-well polystyrene microplates (Deltalab S.L., Barcelona, Spain) at 30/37 °C for 24 h. The lowest concentration of each peptide, which inhibited bacterial growth, was considered as MIC. In addition, a drop of 20 µL of the 24 h inhibitory concentration test samples was spotted on the corresponding solid media to determine the minimum bactericidal concentration (MBC). […] All experiments were performed in triplicate.

For data set [2], the system named is Escherichia coli NBIMCC K12 407. Here is the method:
as §5, §6, §7

Setting [3] is: +Irr, BALB 3T3 cells, irradiated 2.4 J/cm^2, NRU.
[4] abbreviates: −Irr, BALB 3T3 cells, non-irradiated (dark), NRU.
Setting [5] is: broth microdilution, 0–320 µg/mL, 24 h, NI = no inhibition monitored.

≈ marks a conversion by molar mass, not a printed value. Like-named read-outs stand apart in the source and are kept apart here. Where a SMILES comes first, the peptide text is derived from it. [ ]: non-standard residue; d: D form. Orn = NCCC[C@H](N)C(=O)O; Dab = NCC[C@H](N)C(=O)O; Dap = NC[C@H](N)C(=O)O

For the molecule `CC[C@H](C)[C@H](NC(=O)[C@H](CCN)NC(=O)[C@H](CCCCN)NC(=O)[C@@H](NC(=O)[C@@H](NC(=O)[C@H](CC(=O)O)NC(=O)[C@H](Cc1ccccc1)NC(=O)[C@H](CC(C)C)NC(=O)CN)[C@@H](C)CC)[C@@H](C)CC)C(=O)N[C@@H](C)C(=O)N[C@@H](CCC(=O)O)C(=O)N[C@@H](CO)C(=O)N[C@@H](Cc1ccccc1)C(N)=O` [EH [Dab]^8, Gly-Leu-Phe-Asp-Ile-Ile-Lys-Dab^8-Ile-Ala-Glu-Ser-Phe-NH2] (H-GLFDIIK[Dab]IAESF-NH2), the CC50 in “in vitro” (+Irr) came to 81.4 ± 2.34 µM. Also, in the data set with BALB 3T3 cells, the “PIF (Photo Irritation Factor)” value is 1.13. Besides, the half-maximal inhibitory concentration (IC50) (as a rule, the point on the concentration scale where inhibition reaches its midpoint) in the data set on MCF-12F came to 68.3 ± 3.51 µM; in the data set with MCF-7, 67.2 ± 2.57 µM; with MDA-MB-231 it was 79.7 ± 1.78 µM. In addition, in data set [1] (NBIMCC 3562, 24 h), the “MBC, Bacillus subtilis NBIMCC 3562” value turned out to be 320 µg/mL (≈ 220 µM). Further, the “MIC, Bacillus subtilis NBIMCC 3562” value in data set [1] (NBIMCC 3562, 24 h) came out at 80 µg/mL (≈ 55.1 µM). Further, the “MIC, Escherichia coli NBIMCC K12 407” value in data set [2] (K12, 24 h) stood at 80 µg/mL (≈ 55.1 µM).

Molecule `CC[C@H](C)[C@H](NC(=O)[C@H](CN)NC(=O)[C@H](CN)NC(=O)[C@@H](NC(=O)[C@@H](NC(=O)[C@H](CC(=O)O)NC(=O)[C@H](Cc1ccccc1)NC(=O)[C@H](CC(C)C)NC(=O)CN)[C@@H](C)CC)[C@@H](C)CC)C(=O)N[C@@H](C)C(=O)N[C@@H](CCC(=O)O)C(=O)N[C@@H](CO)C(=O)N[C@@H](Cc1ccccc1)C(N)=O` [EH [Dap]^7,8, Gly-Leu-Phe-Asp-Ile-Ile-Dap^7-Dap^8-Ile-Ala-Glu-Ser-Phe-NH2] (H-GLFDII[Dap][Dap]IAESF-NH2) yielded a CC50 in the data set “in vitro” (+Irr) of 357.5 ± 3.03 µM. Moreover, the “PIF (Photo Irritation Factor)” value in the data set with BALB 3T3 cells is on record as 1.01. Also, the “Toxicity compared to the parent peptide aurein 1.2” value with BALB 3T3 cells (BALB 3T3 cells, fold lower toxicity) is “two to four times lower toxicity”. Further, the half-maximal inhibitory concentration (IC50) in the data set with MCF-12F amounted to 308 ± 21.7 µM; with MCF-7 it was 289 ± 19.8 µM; in the data set with MDA-MB-231 it was 372.2 ± 3.17 µM. Further, in data set [1] (NBIMCC 3562, 24 h), the “MIC, Bacillus subtilis NBIMCC 3562” value came out at 320 µg/mL (≈ 229 µM).

For `CC[C@H](C)[C@H](NC(=O)[C@H](CCCN)NC(=O)[C@H](CCCN)NC(=O)[C@@H](NC(=O)[C@@H](NC(=O)[C@H](CC(=O)O)NC(=O)[C@H](Cc1ccccc1)NC(=O)[C@H](CC(C)C)NC(=O)CN)[C@@H](C)CC)[C@@H](C)CC)C(=O)N[C@@H](C)C(=O)N[C@@H](CCC(=O)O)C(=O)N[C@@H](CO)C(=O)N[C@@H](Cc1ccccc1)C(N)=O` [EH [Orn]^7,8, Gly-Leu-Phe-Asp-Ile-Ile-Orn^7-Orn^8-Ile-Ala-Glu-Ser-Phe-NH2] (H-GLFDII[Orn][Orn]IAESF-NH2), the CC50 in the data set “in vitro” (setting [3]) turned out to be 101 ± 3.7 µM; in the data set “in vitro” (setting [4]) it was 157 ± 6.38 µM. Moreover, the “PIF (Photo Irritation Factor)” value in the data set with BALB 3T3 cells (PIF = (CC50 −Irr)/(CC50 +Irr), PIF < 2 not phototoxic, 2 < PIF < 5 possible phototoxicity, PIF > 5 phototoxic) is on record as 1.55. Besides, the IC50 in the data set on MCF-12F (read-out: Mean IC50 ± SD, MCF-12F, MTT, normal cell line) was determined as 112 ± 7.14 µM; with MCF-7 (read-out: Mean IC50 ± SD, MCF-7, MTT) it was 88.9 ± 3.14 µM; in the data set on MDA-MB-231 (read-out: Mean IC50 ± SD, MDA-MB-231, MTT), 123 ± 6.47 µM. Moreover, the “MBC, Bacillus subtilis NBIMCC 3562” value in data set [1] (0–320 µg/mL, NI = no inhibition monitored) was determined as 320 µg/mL (≈ 220 µM). In addition, in data set [1] (setting [5]), the “MIC, Bacillus subtilis NBIMCC 3562” value is 80 µg/mL (≈ 55.1 µM). Moreover, in data set [2] (setting [5]), the “MIC, Escherichia coli NBIMCC K12 407” value turned out to be 80 µg/mL (≈ 55.1 µM).

`CC[C@H](C)[C@H](NC(=O)[C@H](CCCCN)NC(=O)[C@H](CCCN)NC(=O)[C@@H](NC(=O)[C@@H](NC(=O)[C@H](CC(=O)O)NC(=O)[C@H](Cc1ccccc1)NC(=O)[C@H](CC(C)C)NC(=O)CN)[C@@H](C)CC)[C@@H](C)CC)C(=O)N[C@@H](C)C(=O)N[C@@H](CCC(=O)O)C(=O)N[C@@H](CO)C(=O)N[C@@H](Cc1ccccc1)C(N)=O` [EH [Orn]^7, Gly-Leu-Phe-Asp-Ile-Ile-Orn^7-Lys-Ile-Ala-Glu-Ser-Phe-NH2] (H-GLFDII[Orn]KIAESF-NH2): the CC50 was 102 ± 7.4 µM in “in vitro” (setting [3]) and 134 ± 7.4 µM in “in vitro” (setting [4]).

Turning to `CC[C@H](C)[C@H](NC(=O)[C@H](CCCN)NC(=O)[C@H](CCCCN)NC(=O)[C@@H](NC(=O)[C@@H](NC(=O)[C@H](CC(=O)O)NC(=O)[C@H](Cc1ccccc1)NC(=O)[C@H](CC(C)C)NC(=O)CN)[C@@H](C)CC)[C@@H](C)CC)C(=O)N[C@@H](C)C(=O)N[C@@H](CCC(=O)O)C(=O)N[C@@H](CO)C(=O)N[C@@H](Cc1ccccc1)C(N)=O` [EH [Orn]^8, Gly-Leu-Phe-Asp-Ile-Ile-Lys-Orn^8-Ile-Ala-Glu-Ser-Phe-NH2] (H-GLFDIIK[Orn]IAESF-NH2), the CC50 is 59.5 ± 5.21 µM in “in vitro” (setting [3]) and 75.6 ± 3.33 µM in the data set “in vitro” (setting [4]).
